≈ marks a conversion by molar mass, not a printed value.
Assays:
Assay type in all cases: functional
[1] = test system: Mycobacterium tuberculosis; assay: Antimycobacterial activity against Mycobacterium tuberculosis isolate 307 expressing rpoB Ser531Leu mutant gene by resazurin microtiter assay
[2] = test system: Mycobacterium tuberculosis; assay: Antimycobacterial activity against Mycobacterium tuberculosis isolate 311 expressing rpoB mutant gene by resazurin microtiter assay
[3] = test system: Mycobacterium tuberculosis; assay: Antimycobacterial activity against Mycobacterium tuberculosis isolate 349 expressing rpoB mutant gene by resazurin microtiter assay
[4] = test system: Mycobacterium tuberculosis; assay: Antimycobacterial activity against Mycobacterium tuberculosis isolate 308 expressing rpoB His526Asp mutant gene by resazurin microtiter assay
[5] = test system: Mycobacterium tuberculosis; assay: Antimycobacterial activity against Mycobacterium tuberculosis isolate 309 expressing rpoB His526Arg mutant gene by resazurin microtiter assay
[6] = test system: Mycobacterium tuberculosis; assay: Antimycobacterial activity against Mycobacterium tuberculosis isolate 344 expressing rpoB Ser522Leu mutant gene by resazurin microtiter assay
[7] = test system: Mycobacterium tuberculosis; assay: Antimycobacterial activity against Mycobacterium tuberculosis isolate 363 expressing rpoB Asp516Val mutant gene by resazurin microtiter assay
[8] = test system: Mycobacterium tuberculosis; assay: Antimycobacterial activity against Mycobacterium tuberculosis isolate 352 expressing rpoB Asp516Leu and Phe514Phe double mutant gene by resazurin microtiter assay
[9] = test system: Mycobacterium tuberculosis; assay: Antimycobacterial activity against Mycobacterium tuberculosis isolate 343 expressing rpoB Asp516Val mutant gene by resazurin microtiter assay
[10] = test system: Mycobacterium tuberculosis; assay: Antimycobacterial activity against Mycobacterium tuberculosis isolate 364 expressing rpoB Ser522Leu mutant gene by resazurin microtiter assay
[11] = test system: Mycobacterium tuberculosis; assay: Antimycobacterial activity against Mycobacterium tuberculosis isolate 80,014 expressing rpoB Arg529Lys and Leu530Met mutant gene by resazurin microtiter assay
[12] = test system: Mycobacterium tuberculosis; assay: Antimycobacterial activity against multidrug-resistant Mycobacterium tuberculosis clinical isolate obtained from tuberculosis patient infected in BALB/c mouse assessed as decrease in bacterial burden in lung at 5 mg/kg, po administered daily for 2 months measured after 1 month relative to untreated control
[13] = test system: Mycobacterium tuberculosis; assay: Antimycobacterial activity against multidrug-resistant Mycobacterium tuberculosis clinical isolate obtained from tuberculosis patient infected in BALB/c mouse assessed as decrease in bacterial burden in lung at 5 mg/kg, po administered daily for 2 months measured after 2 months; set-up: scale not given: the % may be the effect or the level left
[14] = test system: Mycobacterium tuberculosis; assay: Antimycobacterial activity against multidrug-resistant Mycobacterium tuberculosis clinical isolate obtained from tuberculosis patient infected in BALB/c mouse assessed as decrease in surface area affected by pneumonia in lung at 5 mg/kg, po administered daily for 2 months measured after 2 months; set-up: scale not given: the % may be the effect or the level left

Compound	MIC [1]	MIC [2]	MIC [3]	MIC [4]	MIC [5]	MIC [6]	MIC [7]	MIC [8]	MIC [9]	MIC [10]	MIC [11]	fold change (FC) [12]	Activity [13]	Activity [14]
CO[C@H]1/C=C/O[C@@]2(C)Oc3c(C)c(O)c4c(O)c(c(/C=N/N5CCN(C)CC5)c(O)c4c3C2=O)NC(=O)/C(C)=C\C=C\[C@H](C)[C@H](O)[C@@H](C)[C@@H](O)[C@@H](C)[C@H](OC(C)=O)[C@@H]1C [RIFAMPIN]	>2 µg/mL	>2 µg/mL	>2 µg/mL	>2 µg/mL	0.06 µg/mL (≈ 0.0729 µM)	>2 µg/mL	>2 µg/mL	>2 µg/mL	>2 µg/mL	>2 µg/mL	2 µg/mL (≈ 2.43 µM)			
CCCCCCCCCCCCCCCC(=O)N1C2=C3NC(=O)/C(C)=C\C=C\[C@H](C)[C@H](O)[C@@H](C)[C@@H](O)[C@@H](C)[C@H](OC(C)=O)[C@H](C)[C@@H](OC)/C=C/O[C@@]4(C)Oc5c(C)c(O)c(c(c5C4=O)C2=NC12CCN(CC(C)C)CC2)C3=O	>2 µg/mL	>2 µg/mL	>2 µg/mL	>2 µg/mL	>2 µg/mL	>2 µg/mL	>2 µg/mL	>2 µg/mL	>2 µg/mL	>2 µg/mL	2 µg/mL (≈ 1.84 µM)			
CO[C@H]1/C=C/O[C@@]2(C)Oc3c(C)c(O)c4c(c3C2=O)C2=NC3(CCN(CC(C)C)CC3)NC2=C(NC(=O)/C(C)=C\C=C\[C@H](C)[C@H](O)[C@@H](C)[C@@H](O)[C@@H](C)[C@H](OC(C)=O)[C@@H]1C)C4=O [RIFABUTIN]	2 µg/mL (≈ 2.36 µM)	2 µg/mL (≈ 2.36 µM)	1 µg/mL (≈ 1.18 µM)	>2 µg/mL	0.12 µg/mL (≈ 0.142 µM)	0.06 µg/mL (≈ 0.0708 µM)	0.06 µg/mL (≈ 0.0708 µM)	<0.06 µg/mL	1 µg/mL (≈ 1.18 µM)	0.25 µg/mL (≈ 0.295 µM)	0.12 µg/mL (≈ 0.142 µM)			
CO[C@H]1/C=C/O[C@@]2(C)Oc3c(C)c(O)c4c(c3[C@H]2O)C2=NC3(CCN(CC(C)C)CC3)N(C(C)=O)C2=C(NC(=O)/C(C)=C\C=C\[C@H](C)[C@H](O)[C@@H](C)[C@@H](O)[C@@H](C)[C@H](OC(C)=O)[C@@H]1C)C4=O	>2 µg/mL	>2 µg/mL	>2 µg/mL	>2 µg/mL	2 µg/mL (≈ 2.24 µM)	0.5 µg/mL (≈ 0.561 µM)	0.5 µg/mL (≈ 0.561 µM)	>2 µg/mL	>2 µg/mL	>2 µg/mL	0.5 µg/mL (≈ 0.561 µM)			
CO[C@H]1/C=C/O[C@@]2(C)Oc3c(C)c(O)c4c(c3[C@H]2O)C2=NC3(CCN(CC(C)C)CC3)NC2=C(NC(=O)/C(C)=C\C=C\[C@H](C)[C@H](O)[C@@H](C)[C@@H](O)[C@@H](C)[C@H](O)[C@@H]1C)C4=O	>2 µg/mL	2 µg/mL (≈ 2.48 µM)	>2 µg/mL	>2 µg/mL	2 µg/mL (≈ 2.48 µM)	>2 µg/mL	>2 µg/mL	0.5 µg/mL (≈ 0.62 µM)	>2 µg/mL	>2 µg/mL	2 µg/mL (≈ 2.48 µM)			
C=CCCCCCCCCC(=O)N1C2=C3NC(=O)/C(C)=C\C=C\[C@H](C)[C@H](O)[C@@H](C)[C@@H](O)[C@@H](C)[C@H](OC(C)=O)[C@H](C)[C@@H](OC)/C=C/O[C@@]4(C)Oc5c(C)c(O)c(c(c5C4=O)C2=NC12CCN(CC(C)C)CC2)C3=O	>2 µg/mL	>2 µg/mL	>2 µg/mL	>2 µg/mL	1 µg/mL (≈ 0.987 µM)	0.5 µg/mL (≈ 0.493 µM)	0.25 µg/mL (≈ 0.247 µM)	0.25 µg/mL (≈ 0.247 µM)	2 µg/mL (≈ 1.97 µM)	2 µg/mL (≈ 1.97 µM)	0.5 µg/mL (≈ 0.493 µM)	>3	50%	15%
CO[C@H]1/C=C/O[C@@]2(C)Oc3c(C)c(O)c4c(c3C2=O)C2=NC3(CCN(CC(C)C)CC3)NC2=C(NC(=O)/C(C)=C\C=C\[C@H](C)[C@H](O)[C@@H](C)[C@@H](O)[C@@H](C)[C@H](O)[C@@H]1C)C4=O	>2 µg/mL	>2 µg/mL	>2 µg/mL	>2 µg/mL	0.25 µg/mL (≈ 0.311 µM)	2 µg/mL (≈ 2.48 µM)	1 µg/mL (≈ 1.24 µM)	0.12 µg/mL (≈ 0.149 µM)	>2 µg/mL	>2 µg/mL	1 µg/mL (≈ 1.24 µM)			
CO[C@H]1/C=C/O[C@@]2(C)Oc3c(C)c(O)c4c(c3C2=O)C2=NC3(CCN(CC(C)C)CC3)N(C(C)=O)C2=C(NC(=O)/C(C)=C\C=C\[C@H](C)[C@H](O)[C@@H](C)[C@@H](O)[C@@H](C)[C@H](OC(C)=O)[C@@H]1C)C4=O	2 µg/mL (≈ 2.25 µM)	>2 µg/mL	2 µg/mL (≈ 2.25 µM)	>2 µg/mL	0.25 µg/mL (≈ 0.281 µM)	0.06 µg/mL (≈ 0.0675 µM)	0.06 µg/mL (≈ 0.0675 µM)	1 µg/mL (≈ 1.12 µM)	>2 µg/mL	0.25 µg/mL (≈ 0.281 µM)	0.25 µg/mL (≈ 0.281 µM)	>3	50%	30%

— ChEMBL document CHEMBL1926527, “Pharmacophore insights into rpoB gene mutations in Mycobacterium tuberculosis rifampicin resistant isolates” (2012)
